From ChEMBL document CHEMBL1201862, “PubChem BioAssay data set” (2004)
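Exposure lasted 48 hours, with cells grown in 96-well plates and compounds tested at five concentrations. GI50 = concentration required for 50% inhibition of growth.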 The source made the active and inactive calls. Cut-off read from the data, not from the text of the source: active = GI50 up to about 1.1 µM and inactive = higher.

Legend:
Assay in all cases: NCI-60 cell line screen, 48 h
NCI-H23 = tested on: NCI-H23
SNB-75 = tested on: SNB-75
ACHN = tested on: ACHN
DU-145 = tested on: DU-145
NCI-H460 = tested on: NCI-H460
A498 = tested on: A498
KM12 = tested on: KM12
MDA-MB-435 = tested on: MDA-MB-435
HCT-15 = tested on: HCT-15
OVCAR-3 = tested on: OVCAR-3
U-251 = tested on: U-251
EKVX = tested on: EKVX
M14 = tested on: M14
SR = tested on: SR
SK-MEL-2 = tested on: SK-MEL-2
K562 = tested on: K562
NCI/ADR-RES = tested on: NCI/ADR-RES
SN12C = tested on: SN12C
RXF 393 = tested on: RXF 393
SF-268 = tested on: SF-268

Structure (SMILES)	GI50 (NCI-H23)	GI50 (SNB-75)	GI50 (ACHN)	GI50 (DU-145)	GI50 (NCI-H460)	GI50 (A498)	GI50 (KM12)	GI50 (MDA-MB-435)	GI50 (HCT-15)	GI50 (OVCAR-3)	GI50 (U-251)	GI50 (EKVX)	GI50 (M14)	GI50 (SR)	GI50 (SK-MEL-2)	GI50 (K562)	GI50 (NCI/ADR-RES)	GI50 (SN12C)	GI50 (RXF 393)	GI50 (SF-268)
O=C(/C=C/c1ccc2c(c1)OCO2)NCc1ccco1	> 100 µM (inactive)	22.3 µM (inactive)	> 100 µM (inactive)	> 100 µM (inactive)	> 100 µM (inactive)	84.3 µM (inactive)	> 100 µM (inactive)	> 100 µM (inactive)	> 100 µM	82.2 µM (inactive)	> 100 µM (inactive)	71.6 µM (inactive)	> 100 µM (inactive)	5.09 µM (inactive)	> 100 µM (inactive)	82.6 µM (inactive)	> 100 µM (inactive)	> 100 µM (inactive)	–	–
COc1ccc(C(=O)CC(c2ccc(OC)c(OC)c2)c2c(O)oc3ccccc3c2=O)cc1OC (stereo unspecified)	> 100 µM (inactive)	> 100 µM (inactive)	> 100 µM (inactive)	> 100 µM (inactive)	> 100 µM (inactive)	–	> 100 µM (inactive)	> 100 µM (inactive)	> 100 µM	> 100 µM (inactive)	> 100 µM (inactive)	> 100 µM (inactive)	> 100 µM (inactive)	> 100 µM (inactive)	> 100 µM (inactive)	> 100 µM (inactive)	> 100 µM (inactive)	> 100 µM (inactive)	> 100 µM (inactive)	> 100 µM (inactive)
COP(=O)(OC)C(C)(C)NC(=O)NC(F)(F)F	> 100 µM (inactive)	> 100 µM (inactive)	> 100 µM (inactive)	> 100 µM (inactive)	> 100 µM (inactive)	–	> 100 µM (inactive)	> 100 µM (inactive)	> 100 µM	> 100 µM (inactive)	> 100 µM (inactive)	> 100 µM (inactive)	0.0401 µM (active)	> 100 µM (inactive)	> 100 µM (inactive)	> 100 µM (inactive)	> 100 µM (inactive)	> 100 µM (inactive)	> 100 µM (inactive)	> 100 µM (inactive)
CCNC1=C(NC(=O)c2ccccc2)C(=O)c2ccccc2C1=O	36.7 µM (inactive)	–	–	57 µM (inactive)	39.4 µM (inactive)	–	30.4 µM (inactive)	7.21 µM (inactive)	18.5 µM	25.1 µM (inactive)	33 µM (inactive)	–	26.2 µM (inactive)	40.2 µM (inactive)	–	45.4 µM (inactive)	16.7 µM (inactive)	42.8 µM (inactive)	24.2 µM (inactive)	–
Cc1cccc(Br)[n+]1[O-]	> 100 µM (inactive)	> 100 µM (inactive)	> 100 µM (inactive)	> 100 µM (inactive)	> 100 µM (inactive)	–	> 100 µM (inactive)	> 100 µM (inactive)	> 100 µM	> 100 µM (inactive)	> 100 µM (inactive)	> 100 µM (inactive)	> 100 µM (inactive)	> 100 µM (inactive)	> 100 µM (inactive)	> 100 µM (inactive)	> 100 µM (inactive)	97.1 µM (inactive)	> 100 µM (inactive)	> 100 µM (inactive)
O=C1CC2(CCNCC2)C(=O)N1N1CCCC1	> 100 µM (inactive)	–	> 100 µM (inactive)	> 100 µM (inactive)	–	–	> 100 µM (inactive)	> 100 µM (inactive)	> 100 µM	> 100 µM (inactive)	> 100 µM (inactive)	> 100 µM (inactive)	> 100 µM (inactive)	> 100 µM (inactive)	–	> 100 µM (inactive)	> 100 µM (inactive)	> 100 µM (inactive)	> 100 µM (inactive)	–
COc1c(C)c(C/C=C(\C)CCCCO)c(OC)c(OC)c1OC	> 100 µM (inactive)	> 100 µM (inactive)	> 100 µM (inactive)	> 100 µM (inactive)	18 µM (inactive)	–	19.1 µM (inactive)	> 100 µM (inactive)	> 100 µM	> 100 µM (inactive)	> 100 µM (inactive)	> 100 µM (inactive)	> 100 µM (inactive)	95.7 µM (inactive)	> 100 µM (inactive)	24.4 µM (inactive)	> 100 µM (inactive)	28.7 µM (inactive)	> 100 µM (inactive)	> 100 µM (inactive)
NC(=O)NCCCC(NC(=O)OCCCCCn1ccc(=O)[nH]c1=O)C(=O)O (stereo unspecified)	> 100 µM (inactive)	> 100 µM (inactive)	> 100 µM (inactive)	> 100 µM (inactive)	> 100 µM (inactive)	–	> 100 µM (inactive)	> 100 µM (inactive)	> 100 µM	> 100 µM (inactive)	> 100 µM (inactive)	> 100 µM (inactive)	> 100 µM (inactive)	> 100 µM (inactive)	> 100 µM (inactive)	> 100 µM (inactive)	> 100 µM (inactive)	> 100 µM (inactive)	> 100 µM (inactive)	> 100 µM (inactive)
CC(=O)NC1C(OCc2ccccc2)OC(CO)C(O)C1OCC(=O)NC(C)C(=O)NC(CCC(=O)OCCNC(=O)c1cccc2cc3ccccc3nc12)C(N)=O (stereo unspecified)	20.7 µM (inactive)	20.5 µM (inactive)	12.3 µM (inactive)	11.3 µM (inactive)	8.95 µM (inactive)	–	21.9 µM (inactive)	17.2 µM (inactive)	13.9 µM	20.5 µM (inactive)	18.4 µM (inactive)	24.9 µM (inactive)	20.6 µM (inactive)	8.22 µM (inactive)	26.4 µM (inactive)	39.1 µM (inactive)	21.6 µM (inactive)	22.3 µM (inactive)	16.5 µM (inactive)	22.3 µM (inactive)
CC(=O)OCC12CN(C#N)C3C4COC(CC41)C1(C(=O)N(C)c4ccccc41)C32 (stereo unspecified)	15.6 µM (inactive)	26.5 µM (inactive)	14.3 µM (inactive)	15.4 µM (inactive)	31.3 µM (inactive)	–	36.5 µM (inactive)	26.8 µM (inactive)	17.1 µM	3.58 µM (inactive)	56.1 µM (inactive)	20.7 µM (inactive)	20.2 µM (inactive)	14.6 µM (inactive)	24.9 µM (inactive)	14.8 µM (inactive)	22.2 µM (inactive)	20.3 µM (inactive)	12.1 µM (inactive)	29.1 µM (inactive)
N#CC1(C#N)NC(c2ccsc2)C(C#N)(C#N)NC1c1ccsc1 (stereo unspecified)	> 100 µM (inactive)	> 100 µM (inactive)	> 100 µM (inactive)	> 100 µM (inactive)	> 100 µM (inactive)	> 100 µM (inactive)	> 100 µM (inactive)	> 100 µM (inactive)	> 100 µM	> 100 µM (inactive)	> 100 µM (inactive)	> 100 µM (inactive)	> 100 µM (inactive)	> 100 µM (inactive)	> 100 µM (inactive)	> 100 µM (inactive)	> 100 µM (inactive)	> 100 µM (inactive)	–	> 100 µM (inactive)
CCN(CC)CCn1c(=O)c2ccccc2n2c3c(=O)n(C)c(=O)n(C)c3nc12	2.07 µM (inactive)	1.64 µM (inactive)	0.25 µM (active)	0.771 µM (active)	0.148 µM (active)	–	1.77 µM (inactive)	4.71 µM (inactive)	15.4 µM	4.06 µM (inactive)	1.43 µM (inactive)	3.59 µM (inactive)	3.16 µM (inactive)	0.177 µM (active)	2.82 µM (inactive)	2.21 µM (inactive)	3.33 µM (inactive)	1.53 µM (inactive)	5.27 µM (inactive)	2.07 µM (inactive)
CC1=C(C)C2(C#N)C(=O)N3C(=NC(c4ccccc4)NC3c3ccccc3)C2(C#N)C(c2ccccc2)N1 (stereo unspecified)	> 100 µM (inactive)	–	> 100 µM (inactive)	> 100 µM (inactive)	> 100 µM (inactive)	> 100 µM (inactive)	> 100 µM (inactive)	> 100 µM (inactive)	> 100 µM	–	> 100 µM (inactive)	> 100 µM (inactive)	> 100 µM (inactive)	> 100 µM (inactive)	> 100 µM (inactive)	> 100 µM (inactive)	> 100 µM (inactive)	> 100 µM (inactive)	> 100 µM (inactive)	> 100 µM (inactive)
CCCCCCCC/C=C/CCCCCCCC1CC(O)C(=O)O1 (stereo unspecified)	44.8 µM (inactive)	35.7 µM (inactive)	28.4 µM (inactive)	36.7 µM (inactive)	25.1 µM (inactive)	28.4 µM (inactive)	–	38.9 µM (inactive)	43.1 µM	27.9 µM (inactive)	62.7 µM (inactive)	50.8 µM (inactive)	41.4 µM (inactive)	27.7 µM (inactive)	–	42 µM (inactive)	54.1 µM (inactive)	> 10 µM (inactive)	–	46.2 µM (inactive)
Cc1c(Cl)ccc2c(=O)c3cccc(CC(=O)O)c3oc12	> 100 µM (inactive)	–	> 100 µM (inactive)	> 100 µM (inactive)	> 100 µM (inactive)	> 100 µM (inactive)	> 100 µM (inactive)	> 100 µM (inactive)	> 100 µM	> 100 µM (inactive)	> 100 µM (inactive)	> 100 µM (inactive)	> 100 µM (inactive)	> 100 µM (inactive)	> 100 µM (inactive)	> 100 µM (inactive)	> 100 µM (inactive)	> 100 µM (inactive)	–	> 100 µM (inactive)
